In patent US8937058B2, “17-hydroxy-19-nor-21-carboxylic acid-steroid γ-lactone derivative, use thereof, and medicament containing the derivative” (priority 2007, dated 2015):
Where two headings read alike, the source gives them in different places.

Assays:
[1] = target: T1, mineralocorticoid receptor (Homo sapiens (Human), UniProt P08235); assay: Mineralocorticoid receptor binding test (displacement of 3H-aldosterone, cytosol from Hi5 insect cells); conditions: reference substance 3H-aldosterone
T1 sequence (P08235 whole entry): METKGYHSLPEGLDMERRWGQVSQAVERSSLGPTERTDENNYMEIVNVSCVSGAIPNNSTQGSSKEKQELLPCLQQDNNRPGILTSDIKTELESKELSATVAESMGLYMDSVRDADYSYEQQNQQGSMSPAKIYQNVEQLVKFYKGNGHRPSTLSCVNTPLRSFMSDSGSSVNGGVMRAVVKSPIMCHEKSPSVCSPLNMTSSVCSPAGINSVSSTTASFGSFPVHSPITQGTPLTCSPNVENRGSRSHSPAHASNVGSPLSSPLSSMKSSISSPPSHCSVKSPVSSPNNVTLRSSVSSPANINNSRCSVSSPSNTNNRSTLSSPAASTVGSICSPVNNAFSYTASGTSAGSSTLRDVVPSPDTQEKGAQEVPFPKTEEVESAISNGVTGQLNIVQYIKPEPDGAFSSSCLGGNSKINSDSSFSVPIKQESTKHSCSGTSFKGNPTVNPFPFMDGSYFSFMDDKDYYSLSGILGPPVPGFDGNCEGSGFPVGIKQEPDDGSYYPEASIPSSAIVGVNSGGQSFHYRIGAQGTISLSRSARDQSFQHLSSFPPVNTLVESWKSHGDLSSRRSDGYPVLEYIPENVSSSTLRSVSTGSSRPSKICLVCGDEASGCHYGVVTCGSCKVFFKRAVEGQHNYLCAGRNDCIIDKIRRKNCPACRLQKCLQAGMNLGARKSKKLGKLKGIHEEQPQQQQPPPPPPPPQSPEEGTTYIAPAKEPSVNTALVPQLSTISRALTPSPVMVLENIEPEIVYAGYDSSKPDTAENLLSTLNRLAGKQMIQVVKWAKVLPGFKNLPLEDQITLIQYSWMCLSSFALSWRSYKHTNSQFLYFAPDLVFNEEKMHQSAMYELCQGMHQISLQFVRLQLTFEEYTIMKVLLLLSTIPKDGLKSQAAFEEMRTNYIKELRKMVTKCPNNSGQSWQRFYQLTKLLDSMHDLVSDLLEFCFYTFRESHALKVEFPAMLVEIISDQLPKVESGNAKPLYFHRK
Experimental: 2. Mineralocorticoid Receptor Binding Test:
The test was carried out as in 1., with the following modifications: cytosol from mineralocorticoid receptor-expressing insect cells (Hi5) was used, and the reference substance was ^3H-aldosterone.

androgen receptor [2] = target: T2, androgen receptor (Homo sapiens (Human), UniProt P10275); conditions: for IC50: read-out: Androgen receptor IC50, receptor binding, 3H-testosterone displacement; for Androgen receptor Competition factor: reference substance 3H-testosterone
T2 sequence (P10275 whole entry, species assumed): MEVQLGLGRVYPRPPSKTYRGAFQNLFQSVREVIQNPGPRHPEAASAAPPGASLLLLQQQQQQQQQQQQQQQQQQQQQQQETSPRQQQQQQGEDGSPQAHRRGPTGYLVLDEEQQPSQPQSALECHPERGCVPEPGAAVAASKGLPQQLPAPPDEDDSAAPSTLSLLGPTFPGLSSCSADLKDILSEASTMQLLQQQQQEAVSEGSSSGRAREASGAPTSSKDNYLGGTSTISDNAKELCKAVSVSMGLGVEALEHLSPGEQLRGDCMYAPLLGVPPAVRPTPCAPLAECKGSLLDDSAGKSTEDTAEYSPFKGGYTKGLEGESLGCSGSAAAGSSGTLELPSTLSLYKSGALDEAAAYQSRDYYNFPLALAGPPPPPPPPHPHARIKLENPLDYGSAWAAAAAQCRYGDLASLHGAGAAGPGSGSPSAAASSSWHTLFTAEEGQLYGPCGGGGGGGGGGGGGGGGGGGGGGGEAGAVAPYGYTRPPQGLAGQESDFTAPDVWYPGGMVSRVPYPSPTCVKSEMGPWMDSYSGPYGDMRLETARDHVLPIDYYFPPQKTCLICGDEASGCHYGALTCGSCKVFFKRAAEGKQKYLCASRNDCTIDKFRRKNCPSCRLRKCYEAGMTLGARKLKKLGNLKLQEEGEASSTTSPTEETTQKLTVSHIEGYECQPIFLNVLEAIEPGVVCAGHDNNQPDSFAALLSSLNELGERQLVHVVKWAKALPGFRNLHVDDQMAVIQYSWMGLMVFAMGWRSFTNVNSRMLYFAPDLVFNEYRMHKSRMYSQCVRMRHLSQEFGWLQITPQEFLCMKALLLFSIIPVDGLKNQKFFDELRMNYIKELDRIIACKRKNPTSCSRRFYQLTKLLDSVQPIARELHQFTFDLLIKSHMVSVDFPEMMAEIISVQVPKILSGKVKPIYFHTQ
Experimental: 3. Androgen Receptor Binding Test:
The test was carried out as in 1., with the following modifications: cytosol from androgen receptor-expressing insect cells (Hi5) was used, and the reference substance was ^3H-testosterone.

[3] = target: T1, mineralocorticoid receptor; assay: Antimineralocorticoid action by transactivation test (MDCK luciferase reporter cells); format: cell-based; conditions: in-vitro transactivation, 1 nM aldosterone; for IC50: read-out: Mineralocorticoid receptor Antagonism IC50
Experimental: 5. Determination of Antimineralocorticoid Action by Means of Transactivation Tests:
The antimineralocorticoid activity of the test substances was determined as for the transactivation tests described above.
The following modifications were undertaken: In this case reporter cell lines were used (MDCK cells) that express the human mineralocorticoid receptor, and transiently contain a reporter construct that contains luciferase under the control of a steroid hormone-responsive promoter.
For determination of antimineralocorticoid efficacy, 1 nM aldosterone (SIGMA A-6628, Lot 22H4033) was added to the cells, to achieve almost maximum stimulation of the reporter gene. Inhibition of the effect indicated a mineralocorticoid-antagonistic action of the substances (Table 2; for comparison, corresponding values for drospirenone (A)).

androgen receptor [4] = target: T2, androgen receptor; assay: cell-based; conditions: for Androgen receptor Agonism efficacy / Androgen receptor Antagonism efficacy: in-vitro transactivation, PC3 cells; for Androgen receptor Antagonism efficacy: 0.05 nM R1881
Experimental: 6. Determination of Androgenic/Antiandrogenic Action by Means of Transactivation Tests:
The androgenic/antiandrogenic action of the test substances was determined as for the transactivation tests described above.
The following modifications were made: In this case reporter cell lines were used (PC3 cells) that express the androgen receptor, and a reporter construct that contains luciferase under the control of a steroid hormone-responsive promoter.
For determination of the antiandrogenic efficacy, 0.05 nM R1881 was added to the cells, in order to achieve almost maximum stimulation of the reporter gene.

progesterone receptor = progesterone receptor (Homo sapiens (Human), UniProt P06401); conditions: for Progesterone receptor (PR) Competition factor: CF of 1 = affinity of progesterone, CF >1 lower affinity; for IC50: read-out: Progesterone receptor (PR) IC50, receptor binding, 3H-progesterone displacement; for CF PR/CF MR: ratio of the competition factors CF(PR) and CF(MR)
progesterone receptor, sequence (P06401 whole entry, species assumed, the tested form may be a part): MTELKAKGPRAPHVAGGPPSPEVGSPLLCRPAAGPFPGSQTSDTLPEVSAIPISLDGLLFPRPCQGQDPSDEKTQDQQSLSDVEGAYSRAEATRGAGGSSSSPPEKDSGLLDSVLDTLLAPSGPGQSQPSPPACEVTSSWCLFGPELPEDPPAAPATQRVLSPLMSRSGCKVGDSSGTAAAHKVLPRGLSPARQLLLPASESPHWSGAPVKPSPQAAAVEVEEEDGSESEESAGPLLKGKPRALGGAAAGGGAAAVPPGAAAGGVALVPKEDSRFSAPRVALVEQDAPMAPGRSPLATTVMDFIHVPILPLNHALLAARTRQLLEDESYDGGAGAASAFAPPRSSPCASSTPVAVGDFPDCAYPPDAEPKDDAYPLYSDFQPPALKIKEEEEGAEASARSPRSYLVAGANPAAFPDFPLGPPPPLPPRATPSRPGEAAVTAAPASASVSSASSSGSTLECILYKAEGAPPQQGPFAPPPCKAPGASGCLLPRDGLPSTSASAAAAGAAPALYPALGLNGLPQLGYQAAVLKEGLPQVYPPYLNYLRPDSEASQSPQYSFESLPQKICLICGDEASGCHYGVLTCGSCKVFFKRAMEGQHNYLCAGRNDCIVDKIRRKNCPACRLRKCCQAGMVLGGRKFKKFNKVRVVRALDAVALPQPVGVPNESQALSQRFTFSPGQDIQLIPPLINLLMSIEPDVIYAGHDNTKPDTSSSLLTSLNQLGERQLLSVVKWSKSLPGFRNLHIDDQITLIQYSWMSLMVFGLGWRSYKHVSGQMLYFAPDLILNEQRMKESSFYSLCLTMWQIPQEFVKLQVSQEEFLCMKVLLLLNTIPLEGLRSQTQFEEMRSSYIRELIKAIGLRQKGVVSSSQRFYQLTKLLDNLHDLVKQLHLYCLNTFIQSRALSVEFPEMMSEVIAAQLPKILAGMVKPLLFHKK
Experimental: Progesterone Receptor Binding Test:
Using cytosol from progesterone receptor-expressing insect cells (Hi5), competitive binding to the progesterone receptor was determined from the ability to displace ^3H-progesterone as reference substance from the receptor.

[5] = target: fusion protein from the PR-ligand-binding domain and a Gal4-transactivation domain (Homo sapiens (Human), UniProt P06401); assay: cell-based; conditions: for Progesterone receptor Agonism efficacy / Progesterone receptor Agonism EC50: in-vitro transactivation, CHO K1 reporter cells; for Progesterone receptor Agonism EC50: 16 hours
fusion protein from the PR-ligand-binding domain and a Gal4-transactivation domain, sequence (P06401 679-913): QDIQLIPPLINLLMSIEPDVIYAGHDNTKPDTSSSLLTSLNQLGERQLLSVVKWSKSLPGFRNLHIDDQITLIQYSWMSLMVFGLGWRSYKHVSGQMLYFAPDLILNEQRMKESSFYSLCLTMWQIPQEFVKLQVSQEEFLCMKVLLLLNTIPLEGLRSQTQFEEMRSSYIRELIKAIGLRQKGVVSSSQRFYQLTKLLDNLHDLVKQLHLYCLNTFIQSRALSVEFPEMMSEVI
Experimental: 4. Determination of Progestational Action by Means of Transactivation Tests:
The test compounds were added eight hours later, and the cells were incubated with the compounds for 16 hours. The tests were carried out in triplicate. At the end of incubation the medium containing the effector was removed and replaced with lysis buffer. After luciferase assay substrate (Promega, #E1501) had been added, the 96-well plates were then put in a microplate luminometer (Pherastar, BMG Labtech), and the luminescence was measured. The IC50 values were evaluated using software for calculating dose-effect relations.

SMILES | Mineralocorticoid receptor (MR) Competition factor [1] | IC50 (androgen receptor [2]) [nM] | Androgen receptor Competition factor (androgen receptor [2]) | Mineralocorticoid receptor Antagonism efficacy [3] [%] | IC50 [3] [nM] | EC50 (androgen receptor [4]) [nM] | IC50 (androgen receptor [4]) [nM] | Androgen receptor Agonism efficacy (androgen receptor [4]) [%] | Androgen receptor Antagonism efficacy (androgen receptor [4]) [%] | Progesterone receptor (PR) Competition factor (progesterone receptor) | IC50 (progesterone receptor) [nM] | EC50 [5] [nM] | Progesterone receptor Agonism efficacy [5] [%] | CF PR/CF MR (progesterone receptor) | Progesterone receptor Agonism EC50 [5] | Mineralocorticoid receptor Antagonism IC50 [3]
C[C@]12CC[C@H]3[C@@H](C=CC4=CC(=O)CC[C@@H]43)[C@@H]1CC[C@@]21C=CC(=O)O1 (stereo in doubt) [Example 1, 17β-Hydroxy-19-nor-17α-pregna-4,6,20(Z)-trien-3-one-21-carboxylic acid γ-lactone] | 33.0 | 10000 | 1000.0 | 93.2 | 870 | 130 | 1000 | 44.27 | 5 | – | – | – | – | – | – | –
C[C@@H]1CC2=CC(=O)CC[C@@H]2[C@H]2CC[C@@]3(C)[C@@H](CC[C@@]34C=CC(=O)O4)[C@@H]21 (stereo in doubt) [Example 2A, 17β-Hydroxy-7α-methyl-19-nor-17α-pregna-4,20(Z)-dien-3-one-21-carboxylic acid γ-lactone] | 7.6 | – | – | 129.8 | 180 | – | – | – | – | 8.33 | 310 | 220 | 44.4 | – | – | –
CC[C@@H]1CC2=CC(=O)CC[C@@H]2[C@H]2CC[C@@]3(C)[C@@H](CC[C@@]34C=CC(=O)O4)[C@H]12 (stereo in doubt) [Example 3A, 17β-Hydroxy-7α-ethyl-19-nor-17α-pregna-4,20(Z)-dien-3-one-21-carboxylic acid γ-lactone] | 8.7 | 89 | 2.8 | 55.9 | 360 | 25 | 11 | 30.25 | 41.26 | 54.22 | 1300 | 780 | 16.2 | 6.23 | – | –
C=C[C@@H]1CC2=CC(=O)CC[C@@H]2[C@H]2CC[C@@]3(C)[C@@H](CC[C@@]34C=CC(=O)O4)[C@@H]21 (stereo in doubt) [Example 4A, 17β-Hydroxy-7α-vinyl-19-nor-17α-pregna-4,20(Z)-dien-3-one-21-carboxylic acid γ-lactone] | 18.7 | 130 | 4.7 | 120.0 | 28 | 13 | 1000 | 53.6 | 5 | 27.47 | 760 | 140 | 67.5 | 1.47 | – | –
C[C@]12CC[C@H]3[C@@H](CCC4=CC(=O)CC[C@@H]43)[C@@H]1CC1(CC1)[C@@]21C=CC(=O)O1 (stereo in doubt) [Example 5, 16,16-(1,2-Ethanediyl)-17β-hydroxy-19-nor-17α-pregna-4,20(Z)-dien-3-one-21-carboxylic acid γ-lactone] | 12.7 | 310 | 33.8 | 73.1 | 840 | 140 | 1000 | 37.8 | 5 | 3.31 | 110 | 13 | 46.9 | 0.26 | – | –
CC[C@]12CC[C@H]3[C@@H](CCC4=CC(=O)CC[C@@H]43)[C@@H]1CC[C@@]21C=CC(=O)O1 (stereo in doubt) [Example 6, 17β-Hydroxy-18-methyl-19-nor-17α-pregna-4,20(Z)-dien-3-one-21-carboxylic acid γ-lactone] | 2.4 | 28 | 3.4 | 109.6 | 12 | 53 | 19 | 59.8 | 33.8 | 3.07 | 45 | – | – | 1.28 | – | –
CC[C@]12CC[C@H]3[C@@H](C=CC4=CC(=O)CC[C@@H]43)[C@@H]1CC[C@@]21C=CC(=O)O1 (stereo in doubt) [Example 7, 17β-Hydroxy-18-methyl-19-nor-17α-pregna-4,6,20(Z)-trien-3-one-21-carboxylic acid γ-lactone] | 3.9 | 2600 | 112.0 | 94.2 | 100 | 1000 | 100 | 5 | 59.23 | 6.15 | 110 | – | – | 1.58 | inactive | –
C[C@]12CCC(=O)C=C1[C@@H]1C[C@@H]1[C@H]1[C@@H]3[C@@H]4C[C@@H]4[C@@]4(CCC(=O)O4)[C@@]3(C)CC[C@@H]12 [A, 6β,7β;15γ,16β-dimethylene-3-oxo-17-pregn-4-ene-21,17β-carbolactone, reference compound] | – | – | – | 64.1 | – | – | – | – | – | – | – | – | 72.2 | – | – | –
CC[C@]12CC[C@H]3[C@@H](C[C@@H](CO)C4=CC(=O)CC[C@@H]43)[C@@H]1CC[C@@]21C=CC(=O)O1 [Example 15] | – | – | – | – | – | 1000 | 1000 | 5 | 5 | – | – | – | – | – | inactive | inactive
CC[C@]12CC[C@H]3[C@@H](CC4(CC4)C4=CC(=O)CC[C@@H]43)[C@@H]1CC[C@@]21C=CC(=O)O1 [Example 16, 6,6-(1,2-Ethanediyl)-17β-hydroxy-18-methyl-19-nor-17α-pregna-4,20(Z)-dien-3-one-21-carboxylic acid γ-lactone] | – | – | – | 107.9 | 75 | 1.1 | 1000 | 91.19 | 5 | – | – | – | – | – | – | –
C[C@]12CC[C@H]3[C@@H](C[C@@H](CO)C4=CC(=O)CC[C@@H]43)[C@@H]1CC[C@@]21C=CC(=O)O1 [Example 17, 17β-Hydroxy-6β-hydroxymethylene-19-nor-17α-pregna-4,20(Z)-dien-3-one-21-carboxylic acid γ-lactone] | – | – | – | – | – | – | – | – | – | – | – | – | – | – | inactive | inactive
C[C@]12CC[C@H]3[C@@H](CC4(CC4)C4=CC(=O)CC[C@@H]43)[C@@H]1CC[C@@]21C=CC(=O)O1 [Example 18, 6,6-(1,2-Ethanediyl)-17β-hydroxy-19-nor-17α-pregna-4,20(Z)-dien-3-one-21-carboxylic acid γ-lactone] | – | – | – | 89.3 | 520 | 3.7 | 1000 | 87.91 | 5 | – | – | – | – | – | – | –
